# Test results published in US20110183978A1, “Phenylpyri(mi)dinylazoles” (Bayer CropScience AG, priority 2009, published 2011).
# Read-outs that look alike come from different tables or passages of the source.
# Legend:
# Peronospora parasitica = assay: Example A: in vivo test on Peronospora parasitica (downy mildew on white cabbage); conditions: Hyaloperonospora parasitica, 120 h, cabbage plants sprayed 24 hours before inoculation, scored after 5 days, read-out: % Wirkungsgrad
# Summary of the method: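 Protective spray test: inoculation with 50,000 spores/ml P. parasitica suspension followed 24 h after compound application to cotyledon-stage cabbage (variety Eminence). Plants kept moist at about 20 °C for 5 days and then rated versus controls sprayed without active substance.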
# Botrytis cinerea [1] = assay: Example B: in vivo test on Botrytis cinerea (grey mould on cucumbers); conditions: cucumber plants sprayed 24 hours before inoculation, scored after 5-7 days, read-out: % Wirkungsgrad
# Method: In Vivo Test on Botrytis Cinerea (Grey Mould on Cucumbers) An aqueous suspension of the active substance was prepared by homogenization of a mixture of acetone/Tween/dimethyl sulphoxide and subsequent dilution with water to the desired concentration. Cucumber plants (variety: Vert petit de Paris) are sown in cultivation dishes on a peat-pozzolanic earth substrate (50/50) at 18-20° C. and sprayed at the cotyledon stage Z11 with the aqueous suspension described above. As a control, plants are sprayed with an aqueous solution with no active substance. […] The spores are derived from a 15 day-old culture which are suspended in the following nutrient solution: • 20 g/l gelatine • 50 g/l D-fructose • 2 g/l NH4NO3 • 1 g/l KH2PO4 The inoculated cucumber plants are kept for 5-7 days in a climatic chamber at […] After 5-7 days they are scored in comparison with the control plants.
# Sphaerotheca fuliginea [2] = assay: Example D: in vivo test on Sphaerotheca fuliginea (powdery mildew on cucumber); conditions: Podosphaera fuliginea, 288 h, cucumber plants sprayed 24 hours before inoculation, scored after 12 days, read-out: % Wirkungsgrad
# Summary of the method: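 Scoring took place 12 days after spore inoculation (100,000 spores/ml, at ca. 20/25° C., 60/70% RH) and was made against plants sprayed without active substance. Inoculation followed by 24 hours a spray of water-diluted acetone/Tween/DMSO compound suspension onto Z10 cotyledon-stage cucumbers.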
# Puccinia recondita = assay: Example F: in vivo test on Puccinia recondita (wheat brown rust); conditions: 240 h, wheat plants sprayed 24 hours before inoculation, scored after 10 days, read-out: % Wirkungsgrad
# Method: In Vivo Test on Puccinia Recondita (Wheat Brown Rust) An aqueous suspension of the active substance was prepared by homogenization of a mixture of acetone/Tween/dimethyl sulphoxide and subsequent dilution with water to the desired concentration. Wheat plants (variety: Scipion) are sown in cultivation dishes on a peat-pozzolanic earth substrate (50/50) at 12° C. and sprayed at the first-leaf stage (10 cm size) with the aqueous suspension described above. As a control, plants are sprayed with an aqueous solution with no active substance. After 24 hours the plants are inoculated by spraying with an aqueous suspension of Puccinia recondita spores (100,000 spores per ml). The spores are derived from a 10 day-old infected wheat crop and are suspended in water with 2.5 ml/l Tween. […] After 10 days they are scored in comparison with the control plants.
# [3] = system: Mycosphaerella graminicola; assay: Example G: in vivo test on Mycosphaerella graminicola (wheat leaf blotch disease); conditions: Zymoseptoria tritici, wheat plants sprayed 24 hours before inoculation, scored after 21 to 28 days, read-out: % Wirkungsgrad
# Summary of the method: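 Scipion wheat at first-leaf stage (10 cm) was sprayed with aqueous active-substance suspension, then inoculated 24 hours later with Mycosphaerella graminicola spores (500,000 spores per ml) from 7 day-old culture. Disease was scored after 21 to 28 days against untreated sprayed controls.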
# Fusarium proliferatum = assay: Example I: production of fumonisin FB1 by Fusarium proliferatum (microtitre plates); type: cell-based; conditions: 120 h
# Sphaerotheca fuliginea [4] = assay: Example L: in vivo test on Sphaerotheca fuliginea (powdery mildew on cucumber/protective); conditions: Podosphaera fuliginea, 168 h, cucumber, protective, assessment 7 days after inoculation, read-out: % Wirkungsgrad
# Summary of the method: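 Young cucumber plants sprayed at stated dosage with compound in DMF/alkylaryl polyglycol ether emulsifier diluted in water; inoculated with S. fuliginea spores one day later. Kept in greenhouse at 70% relative humidity, 23° C; protective activity assessed 7 days after inoculation.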
# Alternaria solani = assay: Example M: in vivo test on Alternaria solani (leaf blotch disease/tomato/protective); conditions: 168 h, tomato, protective, 500 ppm active substance, assessed 7 days after inoculation, read-out: % Wirkungsgrad (activity level)
# Summary of the method: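 Alternaria solani infection on tomato scored 7 days post-inoculation. Before inoculation, young plants received a protective spray at the stated application dose; formulation was compound mixed with N,N-dimethylformamide and emulsifier, water-diluted.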
# Plasmopara viticola = assay: Example N: in vivo test on Plasmopara viticola (downy mildew, vine/protective); conditions: 144 h, vine, protective, assessment 6 days after inoculation, read-out: % Wirkungsgrad
# Summary of the method: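 Assessment of downy mildew on vines took place 6 days post-inoculation, after 1 day of moist incubation. Before infection, the young plants received a protective spray of compound emulsified with alkylaryl polyglycol ethers and diluted with water to the stated application rate.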
# Venturia inaequalis = assay: Example O: in vivo test on Venturia inaequalis (apple scab/protective); conditions: 240 h, protective, assessment 10 days after inoculation, read-out: % Wirkungsgrad
# Summary of the method: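 Young plants received a preventive spray of compound formulated as an emulsifier-containing aqueous dilution at the given application rate, then were inoculated with apple scab fungus. Disease was scored 10 days post-inoculation.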
# Botrytis cinerea [5] = assay: Example P: in vivo test on Botrytis cinerea (gray mould on bean/protective); conditions: 48 h, bean, protective, 250 ppm active substance, assessed 2 days after inoculation, read-out: % Wirkungsgrad (activity level)
# Summary of the method: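 Infection blotch size on leaves was scored 2 days after placing 2 Botrytis-colonised agar pieces per leaf. Inoculation followed drying of a protective spray applied to young plants at the stated dosage. Spray was prepared by diluting compound with solvent and alkylaryl polyglycol ether emulsifier in water.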
# Leptosphaeria nodorum = assay: Example Q: in vivo test on Leptosphaeria nodorum (glume blotch in wheat/protective); conditions: Parastagonospora nodorum, 192 h, wheat, protective, assessment 8 days after inoculation, read-out: % Wirkungsgrad
# Summary of the method: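 Protective test: young wheat plants sprayed with compound formulated in N,N-dimethylacetamide plus alkylaryl polyglycol ether emulsifier, diluted in water to the stated dose. After drying, plants inoculated with L. nodorum spore suspension; disease assessed 8 days post-inoculation.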
# Septoria tritici = assay: Example R: in vivo test on Septoria tritici (leaf blotch in wheat/protective); conditions: Zymoseptoria tritici, 504 h, wheat, protective, 1000 ppm active substance, assessed 21 days after inoculation, read-out: % Wirkungsgrad (activity level)
# Summary of the method: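 Protective test: young wheat plants sprayed with compound in N,N-dimethylacetamide/alkylaryl polyglycol ether emulsifier diluted in water, dried, then inoculated with Septoria tritici spore suspension. Disease assessed 21 days after inoculation.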
# [6] = system: Fusarium nivale (var. majus); assay: whole plant or invertebrate; type: in vivo; conditions: Microdochium nivale, in Triticum aestivum, 120 h, read-out: % Wirkungsgrad (activity level)
# Fusarium graminearum [7] = assay: whole plant or invertebrate; type: in vivo; conditions: in Hordeum vulgare, 120 h, read-out: % Wirkungsgrad (activity level)
# Rhizoctonia solani = assay: Example W: in vivo test on Rhizoctonia solani (sheath blight in rice/protective); conditions: 96 h, rice, protective, 250 ppm active substance, assessed 4 days after inoculation, read-out: % Activity level
# Method: Solvent: 28.5 parts by weight acetone Emulsifier: 1.5 parts by weight alkylaryl polyglycol ethers For the preparation of a suitable active substance preparation, 1 part by weight of active substance is mixed with the stated quantities of solvent and emulsifier and the concentrate is diluted to the desired concentration with water. For the testing for protective activity, young rice plants are sprayed with the active substance preparation at the stated application dosage. One day after the treatment, the plants are inoculated with hyphae of Rhizoctonia solani. […] 4 days after the inoculation, the assessment takes place.
# Cochliobolus miyabeanus = assay: Example X: in vivo test on Cochliobolus miyabeanus (brown spot disease, rice/protective); conditions: Bipolaris oryzae, 96 h, read-out: % Activity level
# Pyrenophora teres = assay: Example E: in vivo test on Pyrenophora teres (barley net blotch disease); conditions: Pyrenophora teres, 288 h, barley plants sprayed 24 hours before inoculation, scored after 12 days, read-out: % Wirkungsgrad
# Method: In Vivo Test on Pyrenophora Teres (Barley Net Blotch Disease) An aqueous suspension of the active substance was prepared by homogenization of a mixture of acetone/Tween/dimethyl sulphoxide and subsequent dilution with water to the desired concentration. Barley plants (variety: Plaisant) are sown in cultivation dishes on a peat-pozzolanic earth substrate (50/50) at 12° C. and sprayed at the first-leaf stage (10 cm size) with the aqueous suspension described above. As a control, plants are sprayed with an aqueous solution with no active substance. After 24 hours the plants are inoculated by spraying with an aqueous suspension of Pyrenophora teres spores (12,000 spores per ml). The spores are derived from a 12 day-old culture. […] After 12 days they are scored in comparison with the control plants.
# Pyricularia oryzae = assay: whole plant or invertebrate; type: in vivo; conditions: 120 h, read-out: % Activity level
# Fusarium graminearum [8] = assay: microbe, parasite or virus in culture; type: cell-based
# [9] = Fusarium proliferatum growth, OD 620, 5 days, read-out: % Inhibition des Pilzwachstums bei 50 μM
# [10] = Fusarium proliferatum, 5 days at 20° C., HPLC-MS/MS, read-out: % Inhibition der FB1 produktion bei 50 μM
# [11] = LogPA (logP of the stated pure compound or, in a mixture, of the main isomer, 1-substituted 3-aryl-1H-pyrazole)
SMILES,pest or weed control at 500 ppm (Peronospora parasitica),pest or weed control at 500 ppm (Sphaerotheca fuliginea [2]),pest or weed control at 500 ppm (Puccinia recondita),inhibition at 50 µM (Fusarium proliferatum; [9]),inhibition at 50 µM (Fusarium proliferatum; [10]),chromatographic logP (physchem; [11]),pest or weed control at 500 ppm (Sphaerotheca fuliginea [4]),pest or weed control at 500 ppm (Alternaria solani),pest or weed control at 100 ppm (Venturia inaequalis),pest or weed control at 250 ppm (Botrytis cinerea [5]),pest or weed control at 250 ppm (Rhizoctonia solani),pest or weed control at 250 ppm (Cochliobolus miyabeanus),pest or weed control at 250 ppm (Pyricularia oryzae),chromatographic logP (physchem; LogPA),other results
CC(C)n1cc(-c2ccnc3ccccc23)c(-c2ccc(F)cc2)n1 [Compound 44],78%,98%,71%,33%,100%,2.24,–,–,–,–,–,–,–,–,pest or weed control at 500 ppm (Botrytis cinerea [1]): 71%; pest or weed control at 500 ppm [3]: 81%
CC(C)n1cc(-c2ccncc2)c(-c2ccc(F)cc2)n1 [Compound 89],–,–,–,–,–,1.16,88%,89%,100%,100%,92%,85%,–,–,pest or weed control at 100 ppm (Plasmopara viticola): 73%; pest or weed control at 1000 ppm (Leptosphaeria nodorum): 83%; pest or weed control at 1000 ppm (Septoria tritici): 100%; pest or weed control at 1000 ppm [6]: 92%; pest or weed control at 1000 ppm (Fusarium graminearum [7]): 100%
NC(=O)c1cc(-c2cn(C3CCCCO3)nc2-c2ccc(F)cc2)ccn1 (centres unmarked) [Compound 93],–,–,83%,–,–,2.46,–,–,–,–,–,–,–,–,–
Fc1ccc(-c2nn(CC3CC3)cc2-c2ccncc2)cc1 [Compound 126],89%,85%,75%,–,–,1.33,95%,95%,98%,100%,–,–,–,–,pest or weed control at 100 ppm (Plasmopara viticola): 81%
N#Cc1ccccc1Cn1cc(-c2ccncc2)c(-c2ccc(F)cc2)n1 [Compound 136],94%,91%,–,–,–,1.49,73%,95%,–,–,97%,–,80%,–,pest or weed control at 500 ppm (Pyrenophora teres): 71%
C#CCn1nc(-c2ccc(F)cc2)c(-c2ccncc2)c1C [Compound 171],91%,100%,94%,–,–,–,100%,95%,–,84%,–,–,–,2.51,pest or weed control at 500 ppm (Botrytis cinerea [1]): 71%; pest or weed control at 500 ppm [3]: 93%
O=C(Nc1cc(-c2cn(CC(F)F)nc2-c2ccc(F)cc2)ccn1)C1CC1 [Compound 217],–,–,–,97%,100%,–,100%,–,98%,95%,100%,85%,85%,2.07,–
O=C(Nc1cc(-c2cn(CCCl)nc2-c2ccc(F)cc2)ccn1)C1CC1 [Compound 221],–,–,–,99%,100%,–,100%,–,91%,100%,100%,80%,92%,2.1,"inhibition at 50 µM (Fusarium graminearum [8]; 72 h, read-out: % Inhibition des Pilzwachstums bei 50 μM): 100%; inhibition at 50 µM (Fusarium graminearum [8]; 168 h, read-out: % Inhibition der DON/AcDON produktion bei 50 μM): 100%"
